# According to paper PMC12789660, “Mycobacterial respiratory chain enzymes and growth are inhibited by decylubiquinone” (Communications Biology, 2025):
# Columns and labels:
# [1] = target: T1, QcrB subunit of CIII2 (CIII2CIV2 supercomplex) (Mycolicibacterium smegmatis, UniProt A0R052); experiment: DMNQH2 oxidation:O2 reduction activity, Clark-type oxygen electrode; assay type: biochemical; design: gene MSMEG_4263; intact purified CIII2CIV2 supercomplex, C-terminally FLAG-tagged on QcrB; with QcrA (Rieske), QcrC and CIV subunits of the CIII2CIV2 supercomplex
# [2] = target: T2, QcrB subunit of CIII2 (CIII2CIV2 supercomplex), AAA variant (Mycolicibacterium smegmatis, UniProt A0R052, F153A/M305A/M337A); experiment: biochemical
# T2 construct: gene MSMEG_4263
# [3] = target: T1, QcrB subunit of CIII2 (CIII2CIV2 supercomplex); experiment: cryo-EM structure, […] Å; DCQ modeled in oxidized state at […] occupancy (shared with MQ); assay type: binding; design: gene MSMEG_4263; intact CIII2CIV2 supercomplex purified in GDN, C-terminally FLAG-tagged on QcrB; with QcrA (Rieske), QcrC and CIV subunits of the CIII2CIV2 supercomplex
# cytochrome bd-I = target: T3, cytochrome bd-I (Mycolicibacterium smegmatis, UniProt A0QXA8); experiment: O2 reduction rate, Clark-type electrode; turnover at […]; assay type: biochemical
# T3 construct: gene MSMEG_3233; purified cytochrome bd-I (cydAB, Strep-tagged on CydB) in DDM; with CydB
# T3 sequence (A0QXA8 1-487): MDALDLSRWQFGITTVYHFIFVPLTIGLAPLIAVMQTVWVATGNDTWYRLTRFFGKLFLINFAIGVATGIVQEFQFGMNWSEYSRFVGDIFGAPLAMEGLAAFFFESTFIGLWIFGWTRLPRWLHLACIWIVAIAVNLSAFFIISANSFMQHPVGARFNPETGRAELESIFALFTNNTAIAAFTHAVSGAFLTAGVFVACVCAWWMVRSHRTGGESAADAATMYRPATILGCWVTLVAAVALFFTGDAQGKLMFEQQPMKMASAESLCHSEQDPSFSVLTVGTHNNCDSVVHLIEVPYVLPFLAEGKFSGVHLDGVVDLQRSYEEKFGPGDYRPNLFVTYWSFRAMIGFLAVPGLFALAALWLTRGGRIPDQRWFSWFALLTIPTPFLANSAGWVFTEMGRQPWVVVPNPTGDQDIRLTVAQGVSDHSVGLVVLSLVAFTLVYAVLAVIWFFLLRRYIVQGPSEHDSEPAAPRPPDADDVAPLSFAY
# T3 sequence (A0QXA7 1-350 partner): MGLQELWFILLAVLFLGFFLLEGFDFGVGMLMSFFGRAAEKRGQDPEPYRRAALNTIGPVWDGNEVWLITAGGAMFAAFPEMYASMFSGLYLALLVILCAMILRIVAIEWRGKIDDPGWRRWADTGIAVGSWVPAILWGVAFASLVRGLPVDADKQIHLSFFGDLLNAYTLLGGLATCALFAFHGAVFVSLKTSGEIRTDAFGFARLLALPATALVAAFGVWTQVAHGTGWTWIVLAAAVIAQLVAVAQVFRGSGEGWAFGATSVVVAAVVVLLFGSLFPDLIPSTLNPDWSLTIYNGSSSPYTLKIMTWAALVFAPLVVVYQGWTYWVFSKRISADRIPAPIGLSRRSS
# [4] = target: T1, QcrB subunit of CIII2 (CIII2CIV2 supercomplex); experiment: O2 reduction rate, Clark-type oxygen electrode; turnover […] s^−[…] at […]; assay type: biochemical; design: gene MSMEG_4263; intact purified CIII2CIV2 supercomplex, C-terminally FLAG-tagged on QcrB; with QcrA (Rieske), QcrC and CIV subunits of the CIII2CIV2 supercomplex
smiles,measurement,setting,value
CCCCCCCCCCc1c(C)c(O)c(OC)c(OC)c1O [DCQH2],IC50,[1],~70 µM
same,IC50,[2],~130 µM
"CCCCCCCCCCC1=C(C)C(=O)C(OC)=C(OC)C1=O [DCQ, decylubiquinone]","cryo-EM structure, 2.5 Å; DCQ modeled in oxidized state at 50% occupancy (shared)",[3],"The DCQ density is seen in the more distal Qo1b position, i.e., the same as that of the native MQ"
Cc1c(C)c(O)c2ccccc2c1O [DMNQH2],"O2 reduction rate, Clark-type electrode; turnover at 300 μM",cytochrome bd-I,18 ± 1 s⁻¹
same,"O2 reduction rate, Clark-type oxygen electrode; turnover 80 ± 10 s^-1 at 100 μM",[4],80 ± 10 s⁻¹
